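Cells were grown in 96-well plates and exposed to each compound for 48 hours at five concentrations; endpoints were interpolated linearly between bracketing concentrations, or set to the highest concentration if not reached. TGI is the concentration that stops growth completely.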
Assays:
Assay in all cases: growth of human tumour cells (NCI), 48 h
OVCAR-4 ovarian = system: OVCAR-4 ovarian
MDA-MB-231 breast = system: MDA-MB-231 breast
LOX IMVI melanoma = system: LOX IMVI melanoma
SF-295 CNS = system: SF-295 CNS
NCI/ADR-RES ovarian = system: NCI/ADR-RES ovarian
COLO 205 colon = system: COLO 205 colon
SK-MEL-2 melanoma = system: SK-MEL-2 melanoma
HOP-62 NSCLC = system: HOP-62 NSCLC
KM12 colon = system: KM12 colon
M14 melanoma = system: M14 melanoma

Compound	TGI (OVCAR-4 ovarian)	TGI (MDA-MB-231 breast)	TGI (LOX IMVI melanoma)	TGI (SF-295 CNS)	TGI (NCI/ADR-RES ovarian)	TGI (COLO 205 colon)	TGI (SK-MEL-2 melanoma)	TGI (HOP-62 NSCLC)	TGI (KM12 colon)	TGI (M14 melanoma)
COc1cc(Br)cc2cc(-c3cn4c(n3)sc3ccccc34)c(=O)oc12	> 75 µM	72.5 µM	56.4 µM	58.4 µM	> 75 µM	> 75 µM	70.6 µM	> 75 µM	> 75 µM	> 75 µM
CC1(C)OC(=O)N(c2ccccc2)C12C=Cc1cc([N+](=O)[O-])ccc1O2 (stereo not given)	> 100 µM	80.4 µM	> 100 µM	> 100 µM	> 100 µM	> 100 µM	> 100 µM	> 100 µM	> 100 µM	> 100 µM
CCOC(C)O[C@H]1C(=O)OCC1(C)C (stereo not given in full)	> 100 µM	> 100 µM	> 100 µM	> 100 µM	> 100 µM	> 100 µM	> 100 µM	> 100 µM	> 100 µM	> 100 µM
COC(=O)Nc1nc2ccc(S(=O)(=O)SC)cc2[nH]1	84.5 µM	40.1 µM	22.1 µM	> 100 µM	82.4 µM	> 100 µM	26.9 µM	> 100 µM	> 100 µM	18.4 µM
CC(=O)[C@@H](C)C(=O)N1C(=O)OC[C@@]12[C@@H]1CC[C@@H](C1)C2(C)C	> 100 µM	> 100 µM	> 100 µM	> 100 µM	> 100 µM	> 100 µM	> 100 µM	> 100 µM	> 100 µM	> 100 µM
CC1S/C(=N\N=C2/C(=O)Nc3ccc(Br)cc32)N(C2CCCCC2)C1=O (stereo not given)	4.89 µM	6.76 µM	13.6 µM	16.8 µM	15.6 µM	33.4 µM	3.65 µM	4.25 µM	20.8 µM	22.7 µM
C/C(=N/NC(N)=S)c1ccc[nH]1	> 100 µM	> 100 µM	> 100 µM	> 100 µM	> 100 µM	> 100 µM	> 100 µM	> 100 µM	> 100 µM	> 100 µM
O=C(N/N=C\C=C\c1ccc([N+](=O)[O-])o1)C(=O)N/N=C\C=C\c1ccc([N+](=O)[O-])o1	> 100 µM	> 100 µM	> 100 µM	> 100 µM	70.1 µM	> 100 µM	> 100 µM	> 100 µM	> 100 µM	> 100 µM
c1ccc(CNc2nncc3[nH]cnc23)cc1	> 100 µM	> 100 µM	> 100 µM	> 100 µM	> 100 µM	> 100 µM	> 100 µM	> 100 µM	> 100 µM	> 100 µM
CCOC(=O)c1cn2c(n1)sc1cc(Cl)ccc12	> 100 µM	> 100 µM	> 100 µM	> 100 µM	> 100 µM	60.8 µM	> 100 µM	61.6 µM	> 100 µM	> 100 µM

Reference: PubChem BioAssay (NCI)
